{"source": "patent US4073917A", "about": "“Local anesthetics tertiary aminoalkoxyphenyl ethers” (priority 1974, dated 1978)", "key": {"sciatic nerve": {"system": "sciatic nerve", "test": "infiltration anesthesia, sciatic nerve block in the intact guinea-pig (Shackell)", "assay_type": "in vivo", "procedure": "B. The compounds according to the invention were also tested as to onset and duration of local anesthetic effect at parenteral administration (infiltration anesthesia). […] Four animals were used at each test. The results are depicted in the following table:\nThe reference compound being used at this test is 2-(N-ethyl-n-propylamino)-2',6'-n-butyroxylidide (etidocaine)."}, "mice": {"system": "mice", "conditions": "s.c.; taken from Adams et al; cited from earlier work"}, "[1]": {"system": "back of the guinea-pig (intact skin)", "test": "surface anesthesia by epicutaneous application to intact skin, pricking test as in the intracutaneous wheal test", "assay_type": "in vivo, guinea-pig (Dunkin-Hartley, males)", "conditions": "for Local anesthetic efficiency (percentage block during the 25 min testing period): ± s.e.m.", "description": "A. Guinea-pigs (Dunkin-Hartley, males, 4-6 weeks of age 350±50 g) were shaved and depilated. A gauze folded twice (23 mm diameter) was put into the test solution and thereafter in a plastic cup (outer diameter 26 mm, inner diameter 24 mm, inner height 4 mm). The cup with the gauze saturated with test solution was attached to the back of the animal as an occlusive dressing fastened with plaster (25 mm width) wound around the body). […] After the end of the contact time the site of contact was washed and marked with a fatty chalk. With a sharp instrument (e.g. cannula or a pair of tweezers) the place was pricked six times and registering was made as in the intracutaneous wheal test (Bulbring-Wajda: J. Pharmacol., 1945, 85, p 78) on the back of the guinea-pig, i.e. by registering the presence or absence of a characteristic ripple of the skin of the back of the animal. Every pricking which gives no skin contraction was counted. The test was repeated at regular intervals of 5 min, during an interval of 30 min from the end of the application period. The test gives an indication of onset time, depth and duration of block. The percentage block during the 25 min testing period was used as an index for efficiency. The test solution consisted of the test compound (base) dissolved to 10% (w/v, g/ml) in a mixture of isopropanol (65%: v/v), glycerol (25%: v/v) and water (10%: v/v).\nThe compound according to Example 1 (RAP 411) was tested also with varying concentrations and in the form of a hydrochloride salt in aqueous solution."}, "[2]": {"test": "acute toxicity in mice (LD 50)", "conditions": "mouse, in vivo", "procedure": "C. The acute toxicity for the base forms of a number of the new compounds were tested in mice."}, "[3]": {"conditions": "5% base in the alcoholic mixture"}, "[4]": {"conditions": "10% (w/v) base in isopropanol 65%/glycerol 25%/water 10%, time of contact 30 min"}, "[5]": {"conditions": "10% hydrochloride in aqueous solution"}}}
{"compound": "CCCN(CC)C(CC)C(=O)Nc1c(C)cccc1C", "note": "(centres unmarked) [Etidocaine, 2-(N-ethyl-n-propylamino)-2',6'-n-butyroxylidide]", "values": [{"measurement": "Flexion reflex block, duration", "setting": "sciatic nerve; conc. 0.5%, pH 6.0", "value": "84 ± 17", "unit": "min"}, {"measurement": "Flexion reflex block, onset", "setting": "sciatic nerve; conc. 0.5%, pH 6.0", "value": "1 to 2", "unit": "min"}, {"measurement": "Motor paralysis, duration", "setting": "sciatic nerve; conc. 0.5%, pH 6.0", "value": "131 ± 13", "unit": "min"}, {"measurement": "Motor paralysis, onset", "setting": "sciatic nerve; conc. 0.5%, pH 6.0", "value": 1, "unit": "min"}, {"measurement": "LD 50 (base)", "setting": "mice", "value": 99, "unit": "mg/kg"}]}
{"compound": "CCCCOc1ccccc1OCCN(C(C)C)C(C)C", "note": "[Example 1, 1-n-Butoxy-2-(2'-diisopropylaminoethoxy)-benzene]", "values": [{"measurement": "anesthesia", "setting": "[1]; [3]", "value": "complete anesthesia"}, {"measurement": "duration of complete anesthesia", "setting": "[1]; [3]", "value": "at least 30 min"}, {"measurement": "Local anesthetic efficiency (percentage block during the 25 min testing period)", "setting": "[1]; [4]", "value": "99.3 ± 0.7", "unit": "%"}, {"measurement": "Flexion reflex block, onset", "setting": "sciatic nerve; conc. 0.5%, pH 6.0", "value": 1, "unit": "min"}, {"measurement": "Motor paralysis, onset", "setting": "sciatic nerve; conc. 0.5%, pH 6.0", "value": 1, "unit": "min"}, {"measurement": "LD50", "setting": "[2]; iv", "value": 15, "unit": "mg/kg"}, {"measurement": "LD50", "setting": "[2]; sc", "value": 250, "unit": "mg/kg"}]}
{"compound": "CCCOc1ccccc1OCCN(C(C)C)C(C)C", "note": "[Example 2, 1-n-Propoxy-2-(2'-diisopropylaminoethoxy)-benzene]", "values": [{"measurement": "Local anesthetic efficiency (percentage block during the 25 min testing period)", "setting": "[1]; [4]", "value": "98.6 ± 0.8", "unit": "%"}]}
{"compound": "CC(C)COc1ccccc1OCCN(C(C)C)C(C)C", "note": "[Example 3, 1-Isobutoxy-2-(2'-diisopropylaminoethoxy)-benzene]", "values": [{"measurement": "Local anesthetic efficiency (percentage block during the 25 min testing period)", "setting": "[1]; [4]", "value": "97.2 ± 2.8", "unit": "%"}, {"measurement": "LD50", "setting": "[2]; iv", "value": 14, "unit": "mg/kg"}, {"measurement": "LD50", "setting": "[2]; sc", "value": 300, "unit": "mg/kg"}]}
{"compound": "CCN(CC)CCOc1ccccc1OCC(C)C", "note": "[Example 4, 1-Isobutoxy-2-(2'-diethylaminoethoxy)-benzene]", "values": [{"measurement": "Local anesthetic efficiency (percentage block during the 25 min testing period)", "setting": "[1]; [4]", "value": "97.2 ± 2.8", "unit": "%"}, {"measurement": "LD50", "setting": "[2]; iv", "value": 18, "unit": "mg/kg"}]}
{"compound": "CCN(CC)CCCOc1ccccc1OCC(C)C", "note": "[Example 5, 1-Isobutoxy-2-(3'-diethylaminopropoxy)-benzene]", "values": [{"measurement": "Local anesthetic efficiency (percentage block during the 25 min testing period)", "setting": "[1]; [4]", "value": "75.7 ± 9.4", "unit": "%"}, {"measurement": "LD50", "setting": "[2]; iv", "value": 14, "unit": "mg/kg"}]}
{"compound": "CCCCOc1ccccc1OCCN1CCCCC1", "note": "[Example 6, 1-n-Butoxy-2-(2'-piperidinoethoxy)-benzene]", "values": [{"measurement": "Local anesthetic efficiency (percentage block during the 25 min testing period)", "setting": "[1]; 10% (w/v) base in alcoholic mixture, time of contact 15 min", "value": "79.2 ± 12.6", "unit": "%"}, {"measurement": "LD50", "setting": "[2]; iv", "value": 9, "unit": "mg/kg"}]}
{"compound": "CCN(CC)CC(=O)Nc1c(C)cccc1C", "note": "[Lidocaine, diethylaminoacet-2,6-xylidide]", "values": [{"measurement": "Flexion reflex block, duration", "setting": "sciatic nerve; conc. 2.0%, pH 6.9", "value": "57 ± 7", "unit": "min"}, {"measurement": "Flexion reflex block, onset", "setting": "sciatic nerve; conc. 2.0%, pH 6.9", "value": "1 to 2", "unit": "min"}, {"measurement": "Motor paralysis, duration", "setting": "sciatic nerve; conc. 2.0%, pH 6.9", "value": "78 ± 5", "unit": "min"}, {"measurement": "Motor paralysis, onset", "setting": "sciatic nerve; conc. 2.0%, pH 6.9", "value": 1, "unit": "min"}]}
{"compound": "CCCCOc1ccccc1OCCN(C(C)C)C(C)C.Cl", "note": "[RAP 411 hydrochloride, 1-n-butoxy-2-(2'-diisopropylaminoethoxy)-benzene hydrochloride]", "values": [{"measurement": "anesthesia", "setting": "[1]; [5]", "value": "complete anesthesia"}, {"measurement": "duration of complete anesthesia", "setting": "[1]; [5]", "value": "at least 30 min"}]}
{"compound": "CCN(CC)CCOc1ccccc1OC", "note": "[RAP 419, o-methoxy-(diethylaminoethoxy)-benzene, reference compound]", "values": [{"measurement": "Local anesthetic efficiency (percentage block during the 25 min testing period)", "setting": "[1]; [4]", "value": 0, "unit": "%"}]}
